# Assay results reported in patent publication US20060229347A1, “Treatment of eczemas” (Astion Development A/S, priority 2005, published 2006).
# Where a name gives a salt, the structure may show the parent alone.
# How the values were obtained:
# [1] = system: oxazolone induced ear inflammation; experiment: Oxazolone induced Mouse Ear Oedema Assay; type: in vivo, mice; conditions: for % inhibition of ear swelling: 24 hours; for inhibition of the formation of ear oedema: Example 7, 500 μg/ear dissolved in 96% ethanol
# Procedure: Screening for Anti-inflammatory Effect in the Oxazolone induced Mouse Ear Oedema Assay. […] This screening method is commonly employed for screening and evaluation of anti-inflammatory drugs, in particular with respect to the inflammation seen in contact dermatitis. Betamethasone-17 valerate was used as the positive control. […] Betamethason was administered topically in quantities of 20 μg/ear. Betamethason was applied in the commercial form Celeston valerate® 0.1%. All groups were immunised with 20 μl oxazolone, 1.6% in ethanol 96% (w/v) on the left and the right ear. The ear thickness of all mice on both the left and right side was measured with an electronic measuring gauge. All groups were challenged with 20 μl oxazolone (1.6% in ethanol 96% (w/v)) on the left ear and the right ear. Vehicle (acetone) or test article solutions were administered 20 minutes before and 20 minutes after oxazolone challenge. 24 hours after oxazolone challenge the ear thickness of all mice was measured with an electronic measuring gauge. Mean thickness of the ears and standard deviations were calculated. Ear swelling was calculated as the difference between the ear thickness day 7 and day 8. […] Differences in ear swelling between the vehicle treated group and the other groups were tested for significance employing a non-parametric statistical method of analysis, the Mann-Whitney U test. The required level of significance was p<0.05. […] Both test articles were applied in a dose of 500 μg/ear and dissolved in 96% ethanol. Betamethason, as the positive control was administered topically in quantities of 20 μg/ear.
# Phosphodiesterase PDE IV = Phosphodiesterase PDE IV enzyme inhibition assay (MDS Pharma Service No. 154000); type: biochemical; conditions: in comparison to Oxaprozin
# Procedure: Trends Pharmacol Sci 1991 January; 12(1):19-27 and in Cortijo J, Bou J, Beleta J, Cardelus I, Llenas J, Morcillo E et al. Investigation into the role of phosphodiesterase IV in bronchorelaxation, including studies with human bronchus. Br J Pharmacol 1993 February; 108(2):562-8. The inhibitory activity of Phosphodiesterase PDE IV may be determined at MDS Pharma Service using test method number 154000.
# (§1) The enzyme assays were conducted by MSD Pharma Services.
# [2] = biological target: T1, Protein Tyrosine Kinase, SYK (Homo sapiens, UniProt P43405); experiment: Protein Tyrosine Kinase SYK enzyme inhibition assay (MDS Pharma Service No. 155761); type: biochemical; conditions: in comparison to Oxaprozin
# T1 construct: purchased MDS Pharma Service (contract assay) 155761
# From the text: The term “an inhibitor of Protein tyrosine kinase Syk” refers to any agent that inhibits the catalytic activity of Protein tyrosine kinase Syk in vitro. Such in vitro assays are described in Shichijo M, Yamamoto N, Tsujishita H, Kimata M, Nagai H, Kokubo T. Inhibition of syk activity and degranulation of human mast cells by flavonoids. Biol Pharm Bull 2003 December; 26(12):1685-90 and in Zhang J, Berenstein E, Siraganian R P. Phosphorylation of Tyr342 in the linker region of Syk is critical for Fc epsilon RI signalling in mast cells. Mol Cell Biol 2002 December; 22(23):8144-54. The inhibitory activity of Protein Tyrosine Kinase SYK may be determined at MDS Pharma Service using test method number 155761.
# as §1
# [3] = biological target: T2, Protein Tyrosine Kinase, ZA70 (ZAP-70) (Homo sapiens, UniProt P43403); experiment: Protein Tyrosine Kinase ZA70 (ZAP-70) enzyme inhibition assay (MDS Pharma Service No. 155987); type: biochemical; conditions: in comparison to Oxaprozin
# T2 construct: purchased MDS Pharma Service (contract assay) 155987
# T2 sequence (P43403 1-619): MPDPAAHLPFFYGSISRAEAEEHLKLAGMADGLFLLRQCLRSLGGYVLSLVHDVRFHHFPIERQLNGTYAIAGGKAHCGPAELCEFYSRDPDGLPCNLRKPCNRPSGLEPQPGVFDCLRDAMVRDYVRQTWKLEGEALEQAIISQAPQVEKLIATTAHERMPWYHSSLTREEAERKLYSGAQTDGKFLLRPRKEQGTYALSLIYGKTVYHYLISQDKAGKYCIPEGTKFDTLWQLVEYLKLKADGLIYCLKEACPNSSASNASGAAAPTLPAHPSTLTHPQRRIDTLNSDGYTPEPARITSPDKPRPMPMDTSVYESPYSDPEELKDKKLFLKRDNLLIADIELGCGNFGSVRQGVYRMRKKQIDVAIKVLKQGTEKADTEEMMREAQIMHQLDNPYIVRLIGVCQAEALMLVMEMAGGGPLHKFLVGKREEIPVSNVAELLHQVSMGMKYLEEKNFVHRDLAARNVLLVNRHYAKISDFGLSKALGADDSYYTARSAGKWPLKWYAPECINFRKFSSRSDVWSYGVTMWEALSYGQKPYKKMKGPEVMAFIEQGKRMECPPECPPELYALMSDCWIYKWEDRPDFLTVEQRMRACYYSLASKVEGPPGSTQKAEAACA
# From the text: The term “an inhibitor of Protein tyrosine kinase ZAP-70” refers to any agent that inhibits the catalytic activity of the Protein tyrosine kinase ZAP-70 in vitro as may be determined using a method described in Huckle W R, Dy R C, Earp H S. Calcium-dependent increase in tyrosine kinase activity stimulated by angiotensin II. Proc Natl Acad Sci USA 1992 Sep. 15; 89(18):8837-41 and in Isakov N, Wange R L, Watts J D, Aebersold R, Samelson L E. Purification and characterization of human ZAP-70 protein-tyrosine kinase from a baculovirus expression system. J Biol Chem 1996 Jun. 28; 271(26):15753-61. The inhibitory activity of Protein Tyrosine Kinase ZAP may be determined at MDS Pharma Service using test method number 155987.
# as §1
# skin = conditions: guinea pig, in vivo
# Procedure: 17th, 1992, and the test method B.6 of the 96/54 E.E.C Directive.
# Albino guinea pigs of Dunkin-Hartley strain were exposed to the test item after an acclimatisation period of at least five days.
# The Maximum Non Necrotizing Concentration (M.N.N.C.) was determined by injecting by intradermal route the following concentrations: 2.5%, 1.25%, 0.625%, 0.3125%, 0.1562% and 0.078% diluted in physiological saline solution.
# Pre-Maximum Non Irritant Concentration (pre-M.N.I.C.) was determined by application of the test item under an occlusive dressing during 24 hours, at the following concentrations: 2.5%, 1.25%, 0.625%, 0.3125% diluted in physiological saline solution.
# Maximum Non Irritant Concentration (M.N.I.C.) was determined by initially establishing an induction phase by intradermal injection with a physiological saline solution and by topical application of distilled water followed by a 18-day rest phase. In the challenge phase where the test item is under occlusive dressing for 24 hours, the test item was applied to the skin of the Albino guinea pigs at the following concentrations: 2.5%, 1.25%, 0.625%, 0.3125% diluted in physiological saline solution.
# undamaged skin = experiment: Acute dermal irritation; type: in vivo; conditions: monoethanolamine salt 5% by weight in water, 0.5 mL patch; reading time 1 hour
# Procedure: The sample was applied at a dose of 0.5 mL, on an undamaged skin area of the right flank of each animal. The patch was secured in position with a strip of surgical adhesive tape.
# On the left flank an untreated area served as the control.
# The skin reactions were evaluated after 1 hour and then after 24, 48 and 72 hours following removal of the patch according to the following grading scale:
# Erythema (0: No erythema, 1: Slight(barelyperceptible)erythema, 2: Definite erythema, 3: Moderate to severe erythema, 4: Severe erythema (purple) with formation of eschars (deep lesions) preventing erythema from being grading).
# Oedema (0: No oedema, 1: Very slight (barely perceptible) oedema, 2: Slight oedema (contour clearly defined), 3: Moderate oedema (thickness), 4: Severe oedema (thickness greater than 1 mm, surface larger than zone of application)
compound,measurement,setting,value
CCCCC(=O)O[C@]1(C(=O)CO)[C@@H](C)C[C@H]2[C@@H]3CCC4=CC(=O)C=C[C@]4(C)[C@@]3(F)[C@@H](O)C[C@@]21C [Betamethasone 17-valerate],% inhibition of ear swelling,"[1]; 20 μg/ear topical, Celeston valerate 0.1%",66%
CCCCOc1ccc(CC(=O)NO)cc1 [Bufexamac],inhibitory effect on the PDE-IV enzyme,Phosphodiesterase PDE IV,exhibits inhibitory effect
same,inhibitory effect on Protein Tyrosine Kinase SYK,[2],only exhibits inhibitory effect on the PDE-IV enzyme
same,inhibitory effect on Protein Tyrosine Kinase ZAP-70,[3],only exhibits inhibitory effect on the PDE-IV enzyme
same,inhibition of the formation of ear oedema,[1],did not inhibit the formation of ear oedema at all
O=C(O)CCc1nc(-c2ccccc2)c(-c2ccccc2)o1 [Oxaprozin monoethanolamine salt],% inhibition of ear swelling,"[1]; 250 μg/ear topical in acetone, 20 min before and after oxazolone challenge",53%
same,% inhibition of ear swelling,"[1]; 500 μg/ear topical in acetone, 20 min before and after oxazolone challenge",77%
same,% inhibition of ear swelling,"[1]; 1000 μg/ear topical in acetone, 20 min before and after oxazolone challenge",95%
same,inhibition of ear swelling (conclusion),[1]; 250-1000 μg/ear,dose dependent and highly significant inhibition of ear swelling
same,inhibition of ear swelling compared with Betamethasone 17-valerate,[1]; highest dose (1000 μg/ear) vs Betamethasone 17-valerate 20 μg/ear,significantly stronger
same,skin sensitization (cutaneous reactions attributable to allergy),skin,not causing sensitization reactions
"O=C(O)CCc1nc(-c2ccccc2)c(-c2ccccc2)o1 [Oxaprozin, 4,5-diphenyl-2-oxazole-propionic acid]",inhibition of the formation of ear oedema,[1],statistically significant inhibition of the formation of ear oedema
same,cutaneous reactions (erythema),undamaged skin,slight erythema
